According to patent publication US12121518B2, “PARP-1 and methods of use thereof” (The Board of Supervisors of Louisiana State University and …, priority 2017, dated 2024):

System: VCAM-1 and COX2
Assay: TNF-α-induced VCAM-1 and COX2 expression in colon epithelial cells (immunoblot)
Format: cell-based, mouse
Conditions: TNF-α-treated colon epithelial cells, 5 μM
Description: Referring to FIG. 1, for example, colon epithelial cells were treated with TNF-α for the indicated time intervals in the presence or absence 5 μM of the PARP inhibitor AZD2281.
Cell isolation, culture, treatments, RNA extraction, cDNA synthesis and quantitative PCR—Primary CEC were isolated essentially as described (29). The mouse colon adenocarcinoma (MC-38 or CT-26), Jurkat T, RAW264.7, or 3LL lung carcinoma cell lines were purchased from Kerafast (Boston, MA) or ATCC (Manassas, VA). Mouse embryonic fibroblasts were derived from WT, PARP-1^+/−, or PARP mice using standard protocols. CEC were serum-starved overnight in 0.5% FBS prior to treatment. […] Quantitative determination of gene expression levels using a 2-step cycling protocol was conducted on a MyIQ Cycler (Bio-Rad, Hercules, CA, USA). Relative expression levels were calculated using the 2[-Delta Delta C(T)] method. Quantities of all targets were normalized to the mouse β-actin gene.
Cell fractionation, protein extraction and immunoblot analysis—Tumor tissues or cells were harvested and homogenized in RIPA lysis buffer (Santa Cruz Biotechnology) containing a cocktail of protease and phosphatase inhibitors on ice. […] Protein expression signals developed by ECL (Pierce, ThermoFisher Scientific) were determined by a G:Box Gel Image Analysis System (Syngene, Cambridge, UK) equipped with the GeneSys image capture software.

In the case of `O=C(c1cc(Cc2n[nH]c(=O)c3ccccc23)ccc1F)N1CCN(C(=O)C2CC2)CC1` [olaparib], the “expression of inflammatory markers (VCAM-1 and COX2)” value is reported as “inhibits the expression of inflammatory markers”.
